The record followed here is ChEMBL document CHEMBL4028801, “A multifactorial approach to hepatobiliary transporter assessment enables improved therapeutic compound development” (Toxicol Sci, 2013).

By pIC50 is commonly meant the IC50 on a negative log10 scale, so that one unit is a factor of ten.

pIC50: −log10 of the molar value. Structures can show the parent of a compound that is named as a salt.

The target of experiment [1] is Bile salt export pump (Homo sapiens, UniProt O95342). As to the kind of experiment: Inhibition of human BSEP overexpressed in Sf9 cell membrane vesicles assessed as uptake of [3H]-taurocholate in presence of ATP measured after 15 to 20 mins by membrane vesicle transport assay. The format is ADME, cell-based.
Experiment [2] concerns the target ATP-binding cassette sub-family C member 2 (Homo sapiens, UniProt Q92887). Nature of the experiment: Inhibition of human MRP2 overexpressed in Sf9 cell membrane vesicles assessed as uptake of [3H]-estradiol-17beta-D-glucuronide in presence of ATP and GSH measured after 20 mins by membrane vesicle transport assay.
In experiment [3] the target is ATP-binding cassette sub-family C member 3 (Homo sapiens, UniProt O15438). As to the kind of experiment: Inhibition of human MRP3 overexpressed in Sf9 insect cell membrane vesicles assessed as uptake of [3H]-estradiol-17beta-D-glucuronide in presence of ATP and GSH measured after 10 mins by membrane vesicle transport assay. The format is ADME, cell-based.
In experiment [4] the target is T1, ATP-binding cassette sub-family C member 4 (Homo sapiens, UniProt O15439).
T1 sequence (O15439 whole entry): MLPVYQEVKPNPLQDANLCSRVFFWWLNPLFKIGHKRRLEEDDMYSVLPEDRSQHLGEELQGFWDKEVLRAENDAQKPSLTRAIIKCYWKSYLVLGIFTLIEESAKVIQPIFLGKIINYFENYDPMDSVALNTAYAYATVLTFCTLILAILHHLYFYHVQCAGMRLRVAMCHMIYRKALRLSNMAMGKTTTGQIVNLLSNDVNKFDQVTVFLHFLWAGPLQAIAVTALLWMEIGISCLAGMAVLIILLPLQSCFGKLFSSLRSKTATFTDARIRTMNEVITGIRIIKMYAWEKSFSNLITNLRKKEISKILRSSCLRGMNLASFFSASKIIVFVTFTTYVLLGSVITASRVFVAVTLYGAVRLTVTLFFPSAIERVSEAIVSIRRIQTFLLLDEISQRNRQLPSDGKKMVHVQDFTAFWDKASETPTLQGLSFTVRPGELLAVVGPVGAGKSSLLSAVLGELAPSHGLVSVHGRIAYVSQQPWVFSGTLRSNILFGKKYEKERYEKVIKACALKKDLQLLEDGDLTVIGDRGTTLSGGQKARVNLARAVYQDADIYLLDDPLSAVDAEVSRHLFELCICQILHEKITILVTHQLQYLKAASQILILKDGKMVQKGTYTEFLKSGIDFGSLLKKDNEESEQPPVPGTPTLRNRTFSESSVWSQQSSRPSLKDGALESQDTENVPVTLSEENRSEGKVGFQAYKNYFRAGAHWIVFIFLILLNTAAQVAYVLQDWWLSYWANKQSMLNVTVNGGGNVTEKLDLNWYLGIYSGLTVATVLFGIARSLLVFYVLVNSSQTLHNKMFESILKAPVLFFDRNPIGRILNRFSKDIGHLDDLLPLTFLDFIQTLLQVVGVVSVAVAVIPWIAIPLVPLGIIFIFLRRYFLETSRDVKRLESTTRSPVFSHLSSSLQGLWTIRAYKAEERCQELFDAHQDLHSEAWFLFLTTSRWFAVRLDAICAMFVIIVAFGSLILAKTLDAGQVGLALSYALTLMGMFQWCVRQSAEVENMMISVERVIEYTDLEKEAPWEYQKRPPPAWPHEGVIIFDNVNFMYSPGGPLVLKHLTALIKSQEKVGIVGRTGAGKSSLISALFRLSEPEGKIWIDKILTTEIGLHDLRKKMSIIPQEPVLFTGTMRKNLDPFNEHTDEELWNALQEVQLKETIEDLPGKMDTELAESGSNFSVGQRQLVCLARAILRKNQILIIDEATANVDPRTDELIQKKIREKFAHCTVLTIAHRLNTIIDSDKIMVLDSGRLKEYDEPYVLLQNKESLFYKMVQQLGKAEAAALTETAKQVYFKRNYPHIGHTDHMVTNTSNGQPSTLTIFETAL
As to the kind of experiment: Inhibition of human MRP4 overexpressed in Sf9 cell membrane vesicles assessed as uptake of [3H]-estradiol-17beta-D-glucuronide in presence of ATP and GSH measured after 20 mins by membrane vesicle transport assay. The format is ADME, cell-based.

Bile salt export pump, sequence (O95342 whole entry): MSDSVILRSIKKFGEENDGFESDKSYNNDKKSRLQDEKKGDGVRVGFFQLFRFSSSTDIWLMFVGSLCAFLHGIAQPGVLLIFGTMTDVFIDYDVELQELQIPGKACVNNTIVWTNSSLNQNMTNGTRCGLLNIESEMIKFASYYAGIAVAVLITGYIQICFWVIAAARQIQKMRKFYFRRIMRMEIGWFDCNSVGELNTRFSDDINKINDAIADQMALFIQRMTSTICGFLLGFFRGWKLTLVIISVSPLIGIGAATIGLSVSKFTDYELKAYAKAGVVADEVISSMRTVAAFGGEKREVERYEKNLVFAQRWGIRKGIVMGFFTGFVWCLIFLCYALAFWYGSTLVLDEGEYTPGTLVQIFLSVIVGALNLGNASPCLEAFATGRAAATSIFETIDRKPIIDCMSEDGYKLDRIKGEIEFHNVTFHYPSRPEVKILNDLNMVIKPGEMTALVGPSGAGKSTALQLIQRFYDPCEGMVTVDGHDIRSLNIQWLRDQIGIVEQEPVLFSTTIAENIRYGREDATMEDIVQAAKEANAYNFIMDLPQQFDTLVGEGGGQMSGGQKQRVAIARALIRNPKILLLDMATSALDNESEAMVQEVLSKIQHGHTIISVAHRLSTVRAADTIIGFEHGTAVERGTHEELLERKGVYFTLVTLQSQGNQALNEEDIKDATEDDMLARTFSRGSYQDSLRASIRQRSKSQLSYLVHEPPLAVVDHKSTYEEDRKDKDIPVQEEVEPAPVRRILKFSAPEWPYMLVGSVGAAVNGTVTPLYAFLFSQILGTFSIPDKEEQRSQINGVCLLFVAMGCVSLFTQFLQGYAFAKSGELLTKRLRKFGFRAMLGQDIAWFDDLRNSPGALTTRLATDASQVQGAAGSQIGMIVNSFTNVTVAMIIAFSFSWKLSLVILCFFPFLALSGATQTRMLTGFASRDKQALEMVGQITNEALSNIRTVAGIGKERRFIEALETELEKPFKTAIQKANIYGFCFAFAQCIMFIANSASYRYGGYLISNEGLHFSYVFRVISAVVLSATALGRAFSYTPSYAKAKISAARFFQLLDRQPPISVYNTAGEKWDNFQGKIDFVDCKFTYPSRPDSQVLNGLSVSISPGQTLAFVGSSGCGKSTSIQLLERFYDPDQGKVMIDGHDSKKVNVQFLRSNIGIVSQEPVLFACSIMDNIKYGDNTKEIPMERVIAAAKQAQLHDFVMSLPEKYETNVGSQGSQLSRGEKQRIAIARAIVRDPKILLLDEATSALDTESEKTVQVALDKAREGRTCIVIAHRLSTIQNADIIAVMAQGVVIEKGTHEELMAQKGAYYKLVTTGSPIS
ATP-binding cassette sub-family C member 2, sequence (Q92887 whole entry): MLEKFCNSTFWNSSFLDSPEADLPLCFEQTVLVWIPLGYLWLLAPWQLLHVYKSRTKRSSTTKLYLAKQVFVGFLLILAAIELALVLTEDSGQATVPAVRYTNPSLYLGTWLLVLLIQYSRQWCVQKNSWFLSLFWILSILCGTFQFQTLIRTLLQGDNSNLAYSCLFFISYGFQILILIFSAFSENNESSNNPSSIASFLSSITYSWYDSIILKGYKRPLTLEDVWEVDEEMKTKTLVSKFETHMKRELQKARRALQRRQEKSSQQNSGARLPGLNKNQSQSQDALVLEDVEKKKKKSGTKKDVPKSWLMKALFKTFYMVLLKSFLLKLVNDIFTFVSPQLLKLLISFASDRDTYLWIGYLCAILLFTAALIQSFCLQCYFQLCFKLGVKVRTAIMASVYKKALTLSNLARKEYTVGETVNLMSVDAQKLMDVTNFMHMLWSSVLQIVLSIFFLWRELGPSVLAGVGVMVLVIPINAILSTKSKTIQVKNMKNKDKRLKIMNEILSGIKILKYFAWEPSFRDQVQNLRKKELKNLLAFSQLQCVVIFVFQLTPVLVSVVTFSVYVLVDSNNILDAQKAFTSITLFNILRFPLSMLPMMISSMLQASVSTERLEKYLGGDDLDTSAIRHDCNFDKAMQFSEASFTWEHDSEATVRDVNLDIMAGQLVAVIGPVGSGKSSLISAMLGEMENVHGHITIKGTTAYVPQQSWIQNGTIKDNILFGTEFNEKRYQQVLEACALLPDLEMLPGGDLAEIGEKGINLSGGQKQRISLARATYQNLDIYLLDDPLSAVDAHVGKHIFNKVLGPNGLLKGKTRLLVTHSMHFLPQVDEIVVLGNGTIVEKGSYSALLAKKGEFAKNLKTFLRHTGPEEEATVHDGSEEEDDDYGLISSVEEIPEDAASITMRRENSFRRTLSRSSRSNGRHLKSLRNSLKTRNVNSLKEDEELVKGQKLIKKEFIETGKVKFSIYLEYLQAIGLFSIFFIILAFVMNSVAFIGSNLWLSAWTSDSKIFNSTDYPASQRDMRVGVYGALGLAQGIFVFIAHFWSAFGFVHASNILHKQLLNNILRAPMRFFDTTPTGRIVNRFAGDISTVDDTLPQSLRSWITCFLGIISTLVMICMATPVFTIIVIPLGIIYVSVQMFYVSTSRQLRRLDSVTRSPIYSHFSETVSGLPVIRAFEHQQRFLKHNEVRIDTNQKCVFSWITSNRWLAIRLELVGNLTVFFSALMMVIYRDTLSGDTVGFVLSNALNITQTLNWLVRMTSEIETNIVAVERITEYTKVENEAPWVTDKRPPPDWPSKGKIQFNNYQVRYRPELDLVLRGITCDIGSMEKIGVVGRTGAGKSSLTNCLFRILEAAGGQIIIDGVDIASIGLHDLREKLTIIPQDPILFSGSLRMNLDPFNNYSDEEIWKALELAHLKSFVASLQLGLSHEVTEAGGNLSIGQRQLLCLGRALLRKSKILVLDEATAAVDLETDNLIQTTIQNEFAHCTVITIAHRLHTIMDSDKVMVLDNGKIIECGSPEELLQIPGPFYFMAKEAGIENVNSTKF
ATP-binding cassette sub-family C member 3, sequence (O15438 whole entry): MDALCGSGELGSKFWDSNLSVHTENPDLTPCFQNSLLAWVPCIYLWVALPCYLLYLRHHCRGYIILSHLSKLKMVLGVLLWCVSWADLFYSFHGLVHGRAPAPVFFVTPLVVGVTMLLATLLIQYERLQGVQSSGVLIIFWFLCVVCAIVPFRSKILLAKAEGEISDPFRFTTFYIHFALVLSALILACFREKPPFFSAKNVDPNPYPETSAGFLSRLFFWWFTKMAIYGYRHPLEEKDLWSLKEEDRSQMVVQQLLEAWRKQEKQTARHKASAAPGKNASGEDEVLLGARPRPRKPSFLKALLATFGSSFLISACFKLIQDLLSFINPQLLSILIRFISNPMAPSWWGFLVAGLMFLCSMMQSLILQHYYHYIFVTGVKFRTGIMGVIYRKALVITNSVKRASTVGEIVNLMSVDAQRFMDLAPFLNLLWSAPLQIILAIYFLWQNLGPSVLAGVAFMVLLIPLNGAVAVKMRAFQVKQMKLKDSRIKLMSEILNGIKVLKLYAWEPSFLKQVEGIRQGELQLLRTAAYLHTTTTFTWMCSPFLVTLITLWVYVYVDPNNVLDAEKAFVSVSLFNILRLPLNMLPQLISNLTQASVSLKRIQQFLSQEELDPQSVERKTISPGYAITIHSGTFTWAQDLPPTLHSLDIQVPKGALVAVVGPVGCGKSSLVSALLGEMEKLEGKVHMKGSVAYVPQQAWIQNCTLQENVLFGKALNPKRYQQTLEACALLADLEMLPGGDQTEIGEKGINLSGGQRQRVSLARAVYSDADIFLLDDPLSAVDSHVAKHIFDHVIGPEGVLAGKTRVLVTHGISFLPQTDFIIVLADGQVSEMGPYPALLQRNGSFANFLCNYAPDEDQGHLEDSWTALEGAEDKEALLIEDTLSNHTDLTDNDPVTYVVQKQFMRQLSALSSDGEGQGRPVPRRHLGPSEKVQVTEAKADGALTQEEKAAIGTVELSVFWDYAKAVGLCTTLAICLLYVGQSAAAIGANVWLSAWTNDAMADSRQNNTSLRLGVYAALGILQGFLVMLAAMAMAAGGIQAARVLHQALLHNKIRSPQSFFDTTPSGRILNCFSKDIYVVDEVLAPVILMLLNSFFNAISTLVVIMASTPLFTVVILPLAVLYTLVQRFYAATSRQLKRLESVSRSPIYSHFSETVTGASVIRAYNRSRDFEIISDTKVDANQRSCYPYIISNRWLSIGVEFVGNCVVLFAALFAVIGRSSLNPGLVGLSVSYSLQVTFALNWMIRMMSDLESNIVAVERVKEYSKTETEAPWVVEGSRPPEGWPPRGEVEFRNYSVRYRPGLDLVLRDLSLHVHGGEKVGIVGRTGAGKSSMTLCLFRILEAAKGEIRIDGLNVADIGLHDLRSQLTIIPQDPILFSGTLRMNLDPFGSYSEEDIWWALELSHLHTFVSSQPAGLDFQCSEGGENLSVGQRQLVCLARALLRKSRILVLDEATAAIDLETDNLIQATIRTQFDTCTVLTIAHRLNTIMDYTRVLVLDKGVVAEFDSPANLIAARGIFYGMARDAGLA

Consider `Cc1ccc(-c2ncc(Cl)cc2-c2ccc(S(C)(=O)=O)cc2)cn1` [ETORICOXIB], for which the pIC50 in experiment [1] was 4.27; in experiment [2], less than 3.88; in experiment [3], less than 3.88; in experiment [4], 4.28.
Consider `NS(=O)(=O)c1cc2c(cc1Cl)NCNS2(=O)=O` [HYDROCHLOROTHIAZIDE], for which the negative-log IC50 (pIC50) in experiment [1], in experiment [2], in experiment [3] and in experiment [4] was less than 3.88 each time.
As to `NC(=O)CN1CCCC1=O`, the pIC50 in experiment [1], in experiment [2], in experiment [3] and in experiment [4] was less than 3.88 throughout.
Consider `c1cnc2cc3c(cc2n1)[C@@H]1CNC[C@H]3C1`, for which the pIC50 in experiment [1], in experiment [2], in experiment [3] and in experiment [4] was less than 3.88 in each case.
In the case of `CCOC(=O)c1ccc(N)cc1` [BENZOCAINE], the pIC50 in experiment [1], in experiment [2], in experiment [3] and in experiment [4] was less than 3.88 throughout.
With `O=C1Cc2cc(CCN3CCN(c4nsc5ccccc45)CC3)c(Cl)cc2N1` [ZIPRASIDONE MESYLATE], the pIC50 in experiment [1], in experiment [2], in experiment [3] and in experiment [4] was less than 3.88 in each case.
On to `c1ccc2c(c1)OCC(C1=NCCN1)O2` (stereo not given) [IDAZOXAN], for which the pIC50 in experiment [1], in experiment [2], in experiment [3] and in experiment [4] was less than 3.88 throughout.
Take `Cn1nnc2c(C(N)=O)ncn2c1=O` [TEMOZOLOMIDE]: the pIC50 in experiment [1], in experiment [2], in experiment [3] and in experiment [4] was less than 3.88 each time.
In the case of `CS(=O)(=O)c1ccc([C@@H](O)[C@@H](CO)NC(=O)C(Cl)Cl)cc1` [THIAMPHENICOL], the pIC50 in experiment [1], in experiment [2], in experiment [3] and in experiment [4] was less than 3.88 throughout.
Consider `COc1cccc2c1C(=O)c1c(O)c3c(c(O)c1C2=O)C[C@@](O)(C(=O)CO)C[C@@H]3O[C@H]1C[C@H](N)[C@@H](O)[C@H](C)O1` [EPIRUBICIN HYDROCHLORIDE], for which the pIC50 in experiment [1], in experiment [2], in experiment [3] and in experiment [4] was less than 3.88 in each case.
With `CC(=O)OCC(=O)[C@@]1(O)[C@H](OC(C)=O)C[C@H]2[C@@H]3CCC4=CC(=O)C=C[C@]4(C)[C@@]3(F)[C@@H](O)C[C@@]21C` [TRIAMCINOLONE DIACETATE], the pIC50 in experiment [1], in experiment [2], in experiment [3] and in experiment [4] was less than 3.88 throughout.
For the compound `C[C@@H]1C/C=C/C=C/C=C/C=C/[C@H](O[C@@H]2O[C@H](C)[C@@H](O)[C@H](N)[C@@H]2O)C[C@@H]2O[C@](O)(C[C@@H](O)C[C@H]3O[C@@H]3/C=C/C(=O)O1)C[C@H](O)[C@H]2C(=O)O` [NATAMYCIN], the pIC50 in experiment [1], in experiment [2], in experiment [3] and in experiment [4] was less than 3.88 each time.
As to `C=C[C@H]1C[N@@]2CC[C@H]1C[C@@H]2[C@@H](O)c1ccnc2ccc(OC)cc12` [QUINIDINE], the pIC50 in experiment [1] was less than 3.88; in experiment [2], less than 3.88; in experiment [3], less than 3.88; in experiment [4] it was 4.34.
`O=C1CCc2cc(OCCCCc3nnnn3C3CCCCC3)ccc2N1` [CILOSTAZOL]: the pIC50 in experiment [1] was less than 3.88; in experiment [2], less than 3.88; in experiment [3], less than 3.88; in experiment [4], 4.78.
Take `NC(N)=Nc1nc(CSCCC(N)=NS(N)(=O)=O)cs1` [FAMOTIDINE]: the pIC50 in experiment [1], in experiment [2], in experiment [3] and in experiment [4] was less than 3.88 in each case.
`C[C@H]1O[C@H](O[C@H]2[C@H](O)[C@@H](O)[C@@H](O[C@H]3[C@H](O)[C@@H](O)C(O)O[C@@H]3CO)O[C@@H]2CO)[C@H](O)[C@@H](O)[C@@H]1N[C@H]1C=C(CO)[C@@H](O)[C@H](O)[C@H]1O` (stereo not given in full) [ACARBOSE]: the negative logarithm of the IC50 (pIC50) in experiment [1], in experiment [2], in experiment [3] and in experiment [4] was less than 3.88 each time.
As for `ClC(Cl)(Cl)Cl` [CARBON TETRACHLORIDE], the negative-log IC50 (pIC50) in experiment [1], in experiment [2], in experiment [3] and in experiment [4] was less than 3.88 throughout.
Take `N[C@@H](Cc1ccc(O)c(O)c1)C(=O)O` [LEVODOPA]: the pIC50 in experiment [1], in experiment [2], in experiment [3] and in experiment [4] was less than 3.88 in each case.
For the compound `CC(C)C(=O)Nc1ccc([N+](=O)[O-])c(C(F)(F)F)c1` [FLUTAMIDE], the pIC50 in experiment [1], in experiment [2], in experiment [3] and in experiment [4] was less than 3.88 each time.
Turning to `CC(C)c1nc(N(C)S(C)(=O)=O)nc(-c2ccc(F)cc2)c1/C=C/[C@@H](O)C[C@@H](O)CC(=O)O` [ROSUVASTATIN CALCIUM], the pIC50 in experiment [1] was less than 3.88; in experiment [2], less than 3.88; in experiment [3], 4.23; in experiment [4], 4.57.
Take `O=C1NCCN1CCN1CCC(c2cn(-c3ccc(F)cc3)c3ccc(Cl)cc23)CC1` [SERTINDOLE]: the pIC50 is 4.08 in experiment [1], less than 3.88 in experiment [2], less than 3.88 in experiment [3] and less than 3.88 in experiment [4].
Consider `Nc1ccn(C[C@@H](CO)OCP(=O)(O)O)c(=O)n1` [CIDOFOVIR], for which the pIC50 in experiment [1], in experiment [2], in experiment [3] and in experiment [4] was less than 3.88 in each case.
On to `OC(CNCC(O)C1CCc2cc(F)ccc2O1)C1CCc2cc(F)ccc2O1` (stereo not given) [NEBIVOLOL HYDROCHLORIDE], for which the pIC50 in experiment [1], in experiment [2], in experiment [3] and in experiment [4] was less than 3.88 in each case.
Turning to `CCCCc1ncc(/C=C(\Cc2cccs2)C(=O)O)n1Cc1ccc(C(=O)O)cc1` [EPROSARTAN], the pIC50 was less than 3.88 in experiment [1], 4.24 in experiment [2], 5.18 in experiment [3] and less than 3.88 in experiment [4].
`CN1CCN(C2=Nc3cc(Cl)ccc3Nc3ccccc32)CC1` [CLOZAPINE]: the pIC50 in experiment [1], in experiment [2], in experiment [3] and in experiment [4] was less than 3.88 each time.
For the compound `CC1(C)O[C@@H]2[C@@H](CO[C@@]3(COS(N)(=O)=O)OC(C)(C)O[C@@H]23)O1` [TOPIRAMATE], the negative-log IC50 (pIC50) in experiment [1], in experiment [2], in experiment [3] and in experiment [4] was less than 3.88 throughout.
As to `CC(=O)Oc1ccc(C(c2ccc(OC(C)=O)cc2)c2ccccn2)cc1` [BISACODYL], the pIC50 in experiment [1], in experiment [2], in experiment [3] and in experiment [4] was less than 3.88 in each case.
Consider `CCOC(=O)C1=C[C@@H](OC(CC)CC)[C@H](NC(C)=O)[C@@H](N)C1` [OSELTAMIVIR PHOSPHATE], for which the pIC50 in experiment [1], in experiment [2], in experiment [3] and in experiment [4] was less than 3.88 in each case.
On to `NC(=O)c1ncn([C@@H]2O[C@H](CO)[C@@H](O)[C@H]2O)n1` [RIBAVIRIN], for which the pIC50 in experiment [1], in experiment [2], in experiment [3] and in experiment [4] was less than 3.88 throughout.
As to `Nc1ccn([C@@H]2O[C@H](CO)[C@@H](O)C2(F)F)c(=O)n1` [GEMCITABINE HYDROCHLORIDE], the pIC50 in experiment [1], in experiment [2], in experiment [3] and in experiment [4] was less than 3.88 throughout.
